# Results from patent publication US8927015B2, “Formulations for delivering insulin” (Emisphere Technologies, Inc., priority 2006, dated 2015).
# What was measured:
# [1] = Solubility of insulin in aqueous solutions containing a delivery agent
# Method: The solubility of insulin was investigated in aqueous solutions containing varying amounts of the delivery agent compound sodium 4-CNAB. The aqueous solution containing delivery agent was adjusted to pH 1 by the addition of 1N HCl and excess insulin was added to the acidified solution. Thereafter, the pH of the solution was increased by the addition of increments of 1N NaOH. Vials containing the suspensions were left without shaking or sonicating for 1-2 hours. The supernatant was analyzed for insulin and sodium 4-CNAB using an HPLC method and the pH was recorded. […] All of these experiments were performed at room temperature.
# [2] = Dissolution of insulin pellet (USP Dissolution Type II paddle); type: physicochemical
# Method: A 300 mg pellet of insulin was prepared in a die. The surface area of the pellet available to the dissolution medium was 0.484 cm^2. The pellet was compressed at 1200-1400 lbs on a Carver press to form discs. The die was then attached to the shaft of a dissolution apparatus (USP Dissolution Type II (Paddle) made by Vankel). The die was rotated at 100 rpm and then immersed in 500 mL of degassed dissolution medium maintained at 37° C. Dissolution experiments were conducted in water and in aqueous solutions containing sodium 4-CNAB. Samples of the solutions were taken over two hours and analyzed by HPLC. FIGS. 3 and 4 show dissolution profiles of insulin in deionized (DI) water and in 10 mg/mL sodium 4-CNAB solution, respectively.
# [3] = for Solubility: pH 6.8
# Method: Excess insulin was added to buffer solutions at pH values of 1, 2, 3, 4, 5, 6, 6.8, and 7.4. Vials containing the solutions were shaken in a constant temperature water bath, and visually observed at regular time intervals. Samples were taken at 2 hours, 4 hours, and 24 hours and analyzed by a stability-indicating HPLC method.
molecule,measurement,setting,value
"OCCN(CCO)CCCCCCCCOc1ccccc1O [HPOD, 8-(2-hydroxyphenoxy)octyldiethanolamine]",Insulin,"[1]; delivery agent 250 mg/mL, pH 3.9, room temperature",>50 mg/mL
"O=C(O)CCCCCCCNC(=O)c1ccccc1O [SNAC, N-(8-[2-hydroxybenzoyl]-amino) caprylic acid]",Insulin,"[1]; delivery agent 150 mg/mL, pH 7.9, room temperature",>200 mg/mL
"O=C(O)CCCNC(=O)c1ccc(Cl)cc1O [Treatment 4-CNAB, 4-[(2-hydroxy-4-chlorobenzoyl)amino]butanoate]",Insulin,"[1]; delivery agent 5 mg/mL, pH of delivery agent solution 6.4, room temperature",0.5 mg/mL
same,Insulin,"[1]; delivery agent 10 mg/mL, pH 6.45, room temperature",1 mg/mL
same,Insulin,"[1]; delivery agent 50 mg/mL, pH 6.26, room temperature",11 mg/mL
same,Insulin,"[1]; delivery agent 50 mg/mL, pH 6.49, room temperature",44 mg/mL
same,Insulin,"[1]; delivery agent 100 mg/mL, pH 6.45, room temperature",>110 mg/mL
same,Insulin,"[1]; delivery agent 100 mg/mL, pH 6.71, room temperature",86 mg/mL
same,Insulin,"[1]; delivery agent 150 mg/mL, pH 6.83, room temperature",187 mg/mL
same,Insulin,"[1]; delivery agent 200 mg/mL, pH 6.79, room temperature",>135 mg/mL
Insulin: insulin (recombinant human insulin) whose solubility and dissolution were tested,rate of insulin dissolution,"[2]; 10 mg/mL sodium 4-CNAB dissolution media versus deionized water, 37° C., 100 rpm",significantly greater
same,insulin levels in dissolution media,"[2]; 50 mg/ml sodium 4-CNAB dissolution media, HPLC",below the detection limits
same,Insulin,"[1]; None (DI water), pH 6.3, room temperature",1.14 mg/mL
insulin type #1: recombinant human zinc insulin obtained from Diosynth France,"dissolution rate, visual observation","[3]; not observed at pH 1, 2, and 7.4 where dissolution was very rapid for both",dissolved faster than insulin type #2
same,Solubility,[3],greater than 4 mg/mL
insulin type #2: recombinant human zinc insulin obtained from Eli Lilly Co.,Solubility,[3],> 2000 µg/mL
